According to US20220071971A1, “MACROCYCLIC COMPOUNDS AND THEIR USE IN THE TREATMENT OF DISEASE” (NOVARTIS AG, priority 2018, published 2022):
pEC50: −log10 of the molar value. Like-named read-outs stand apart in the source and are kept apart here.

Key:
delF508-CFTR [1] = target: T1, delF508-CFTR (Homo sapiens, UniProt P13569, DEL508-508); assay: Measurement of delF508-CFTR functional activity in primary human bronchial epithelial cells (HBECs) using MTECC-24 assay; assay type: cell-based; details: for pEC50: primary human delF508-CFTR bronchial epithelial cells, 24 hr compound treatment, equivalent short circuit current, forskolin and potentiator, mean of at least two replicates, read-out: MTECC24 CFHBEC EC50; for MTECC24 CFHBEC Amax %: test compound (24 h) with potentiator (S)-3-amino-6-methoxy-N-(3,3,3-trifluoro-2-hydroxy-2-methylpropyl)-5-(trifluoromethyl)picolinamide, relative to 2 μM 3-(6-(1-(2,2-difluorobenzo[d][1,3]dioxol-5-yl)cyclopropane-1-carboxamido)-3-methylpyridin-2-yl)benzoic acid plus 0.5 μM N-(2,4-di-tert-butyl-5-hydroxyphenyl)-4-oxo-1,4-dihydroquinoline-3-carboxamide
T1 construct: expressed in transfected cells
T1 sequence (P13569 with tags, fused parts or gaps DEL508-508): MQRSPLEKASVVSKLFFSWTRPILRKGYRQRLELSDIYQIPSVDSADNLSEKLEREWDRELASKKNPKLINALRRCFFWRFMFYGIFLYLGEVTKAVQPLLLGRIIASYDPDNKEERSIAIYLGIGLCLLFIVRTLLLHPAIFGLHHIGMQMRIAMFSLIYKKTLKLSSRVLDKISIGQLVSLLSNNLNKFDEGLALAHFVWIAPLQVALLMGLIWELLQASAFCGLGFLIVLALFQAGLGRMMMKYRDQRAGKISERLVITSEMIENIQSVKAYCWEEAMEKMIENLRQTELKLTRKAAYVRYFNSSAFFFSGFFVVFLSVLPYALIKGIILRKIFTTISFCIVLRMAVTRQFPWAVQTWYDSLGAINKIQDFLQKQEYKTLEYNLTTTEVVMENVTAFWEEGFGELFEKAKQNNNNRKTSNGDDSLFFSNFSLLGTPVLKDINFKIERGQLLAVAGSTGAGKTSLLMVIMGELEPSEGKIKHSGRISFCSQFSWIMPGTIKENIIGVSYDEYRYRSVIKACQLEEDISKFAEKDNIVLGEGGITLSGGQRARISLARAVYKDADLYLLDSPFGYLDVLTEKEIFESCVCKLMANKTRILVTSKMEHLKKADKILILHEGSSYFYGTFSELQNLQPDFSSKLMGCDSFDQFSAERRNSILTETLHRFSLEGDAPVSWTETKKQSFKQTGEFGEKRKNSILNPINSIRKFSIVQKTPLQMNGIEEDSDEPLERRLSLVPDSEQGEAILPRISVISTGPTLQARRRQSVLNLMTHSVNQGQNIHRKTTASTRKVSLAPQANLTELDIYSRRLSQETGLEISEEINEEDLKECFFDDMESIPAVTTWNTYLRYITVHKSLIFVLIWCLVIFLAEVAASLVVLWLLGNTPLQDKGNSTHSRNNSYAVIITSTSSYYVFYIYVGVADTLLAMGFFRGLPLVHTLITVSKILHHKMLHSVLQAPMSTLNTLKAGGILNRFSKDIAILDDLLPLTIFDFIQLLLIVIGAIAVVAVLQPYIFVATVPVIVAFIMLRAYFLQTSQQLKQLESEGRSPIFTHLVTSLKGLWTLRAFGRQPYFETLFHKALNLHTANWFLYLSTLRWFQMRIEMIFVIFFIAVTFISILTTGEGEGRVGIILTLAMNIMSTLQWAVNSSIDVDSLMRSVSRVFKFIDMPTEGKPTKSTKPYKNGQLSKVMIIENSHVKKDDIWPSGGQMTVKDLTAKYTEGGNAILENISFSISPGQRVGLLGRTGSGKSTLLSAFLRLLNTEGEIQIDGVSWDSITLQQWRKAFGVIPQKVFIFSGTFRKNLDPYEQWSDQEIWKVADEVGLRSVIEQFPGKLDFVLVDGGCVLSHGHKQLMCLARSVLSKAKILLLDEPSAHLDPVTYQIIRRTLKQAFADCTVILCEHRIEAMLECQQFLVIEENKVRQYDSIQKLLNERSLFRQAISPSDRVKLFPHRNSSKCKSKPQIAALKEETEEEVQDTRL
Source text: Measurement of delF508-CFTR Functional Activity in Primary Human Bronchial Epithelial Cells (HBECs) Using Multi-Transepithelial Clamp Circuit (MTECC-24) Assay
This assay measures the functional activity of the CFTR channel (Chloride ion transport) in patient derived primary human bronchial epithilial cells with forskolin activation and in the presence of the CFTR corrector/potentiator combination.
Primary human delF508-CFTR bronchial epithelial cells were and cultured according to previously established methods (Neuberger, T. et, al., Methods in Molecular Biology, 2011, 741, pp 39-54). Briefly, before thawing the HBEC cells, T25 flasks were coated with 2 mL of 3T3 conditioned media (MTI-GlobalStem, Cat #GSM9100) for at least 12 hours in 37° C. CO2 incubator. 1.7×10^5 cells were seeded into one T25 flask with 5 mL of HBE growth media (BEBM with supplements (Lonza, Cat #CC-3170) with 10 nM of retinoic acid (Sigma, Cat #R-2625) and 1% of PSA (Hyclone, Cat #SV30079.01). Media was changed every day till the cells were 100% confluent. Cells were seeded into T75 flasks (pre-coated with 5 mL of 3T3 conditioned media for more than 12 hrs) at 4.95×10^5 cells/T75 flask in 15 mL of HBE growth media. Flasks were fed everyday with fresh HBE growth media until the cells were confluent. 24-well transwell plates (Corning, Cat #3378) were coated with 3T3 conditioned media (70 μL on top of the filter, 350 μL to the bottom of the well) overnight in the 37° C. CO2 incubator. Cells were seeded in the pre-coated 24-well transwell plates at 1.7×10^5 cell/well with 700 μL of growth media at the bottom of the well and 200 μL of growth media at the top of the filter. After 24 hrs, cells were switched into HBE differentiation media ((DMEM/F12 (Gibco, Cat #11330-032) supplement with 2% Ultroser G (Pall, Cat #15950-017), 2% of Fetal Clone II (Hyclone, Cat #SH30066.03), 0.25% Bovine Brain Extract (Lonza, Cat #CC-4098), 1% of PSA, 2.5 μg/mL of Insulin (Sigma, Cat #19278), 20 nM of Hydrocortisone (Sigma, Cat #H0888), 500 nM of Triiodothyronine (Sigma, Cat #T6397), 2.5 μg/mL of Transferrin (Sigma, Cat #T8158), 250 nM of Ethanolamine (Sigma, Cat #E0135), 1.5 μM of Epinephrine (Sigma, Cat #E4250), 250 nM of Phosphoethanolamine (Sigma, Cat #P0503), 10 nM of retinoic acid)) with 200 μL on top of the filter (apical side) and 700 μL at the bottom of the well (basolateral side). Cells were fed every other day with the differentiation media. After 4 days, cells were exposed to air/liquid interface. Then cells were fed every other day for 4 weeks before fully differentiated.
Cells were washed with 3 mM DTT in PBS at 70 ul/well for 30 min at 37° C. 6 days before the assay. 3 days before the assay, cells were washed again with PBS at 70 ul/well for 30 min at 37° C. Then cells were treated with compound for 24 hrs before the assay.
Following 24 hr treatment with compound, cells were transferred into plates containing 750 ul of assay media on basolateral side and 250 ul on apical side (Assay medium: F-12 Coon's modified, 20 mM HEPES pH7.4 with TRIS Base, No FCS or bicarbonate). The plates wee then transferred to the heated plate compartments (basolateral buffer temperature ˜36.5° C. on the heating block) of the TECC24 system for 45 mins prior to measurements.
Modulators were added sequentially as follows while the TECC24 instrument recorded the equivalent short circuit current (Ieq):
Prior to dilution into assay medium the stocks were as follows: Benzamil stock: 10 mM in DMSO
Forskolin Stock: 50 mM in DMSO
N-(2,4-di-tert-butyl-5-hydroxyphenyl)-1,4-dihydro-4-oxoquinoline-3-carboxamide: 50 mM in DMSO (S)-3-amino-6-methoxy-N-(3,3,3-trifluoro-2-hydroxy-2-methylpropyl)-5-(trifluoromethyl)picolinamide: 50 mM stock 100% DMSO Bumetanide stock: 20 mM in EtOH
The data was normalized using the median signal from wells treated with 0.1% DMSO as a baseline. Curve fitting and EC50 calculations were performed using the following equation: […]

delF508-CFTR [2] = target: T1, delF508-CFTR; assay: Measurement of delF508-CFTR-HRP surface expression in CFBE41o- cells; assay type: cell-based; details: for pEC50: HRP-tagged delF508-CFTR surface expression, CFBE41o- cells, 24 h with compound, 10-point curve, highest concentration 10 μM; for Emax: CFBE41o-, read-out: DelF508-CFTR-HRP Amax %
Outline: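 CFBE41o- cells stably expressing delF508-CFTR with HRP in the fourth extracellular loop, induced 48 h with 500 ng/mL doxycycline, then exposed to compound (10-point, 3-fold, top 10 μM, ≤0.5% DMSO) for 24 h at 37° C. Surface HRP read by luminescence with cell-impermeant substrate; EC50 by logistic fit, triplicates, efficacy relative to reference corrector.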

[3] = efficacy relative to reference compound 3-(6-(1-(2,2-difluorobenzo[d][1,3]dioxol-5-yl)cyclopropane-1-carboxamido)-3-methylpyridin-2-yl)benzoic acid

Row | Molecule | pEC50 (delF508-CFTR [1]) | MTECC24 CFHBEC Amax % (delF508-CFTR [1]) | pEC50 (delF508-CFTR [2]) | Emax (delF508-CFTR [2]; [3]) | also measured
1 | O=S1(=O)Nc2ccc(C(F)(F)F)c(n2)-c2ccccc2C=CCCC(CCCO)Oc2cccc1n2 (stereo not drawn) |  |  |  |  | ring closure, isolated yield (from C=CCCC(CCCO)Oc1cccc(S(=O)(=O)Nc2ccc(C(F)(F)F)c(-c3ccccc3C=C)n2)n1, rcm bond, 16-membered ring, Grubbs II (10 mol%), DCM, 3.68 mM, 45.0 °C): 95%
2 | O=S1(=O)Nc2ccc(C(F)(F)F)c(n2)-c2ccccc2C=CCCCCN(CCCCCO)c2cccc1n2 |  |  |  |  | ring closure, isolated yield (from C=CCCCCN(CCCCCO)c1cccc(S(=O)(=O)Nc2ccc(C(F)(F)F)c(-c3ccccc3C=C)n2)n1, rcm bond, 17-membered ring, Grubbs II (20 mol%), DCM (or DCE), 1.85 mM, 55.0 °C): 94%
3 | O=S1(=O)Nc2ccc(C(F)(F)F)c(n2)-c2ccccc2C=CCCN(CCO)c2cccc1n2 |  |  |  |  | ring closure, isolated yield (from C=CCCN(CCO)c1cccc(S(=O)(=O)Nc2ccc(C(F)(F)F)c(-c3ccccc3C=C)n2)n1, rcm bond, 15-membered ring, Grubbs II (two portions), DCM, 2.1 mM, 45.0 °C): 91%
4 | 3-(4,4-dioxido-2^3-(trifluoromethyl)-9-oxa-4-thia-3,6-diaza-2,5(2,6)-dipyridina-1(1,2)-benzenacyclododecaphane-6-yl)propanoic acid [Compound 98] | 7.00 | 69.2% | 5.69 |  | DelF508-CFTR-HRP Amax % (delF508-CFTR [2]; [3]): 719.0%
5 | CC(C)(CO)CN1CCCCCc2ccccc2-c2nc(ccc2C(F)(F)F)NS(=O)(=O)c2cccc1n2 [Compound 27, 6-(3-hydroxy-2,2-dimethylpropyl)-2^3-(trifluoromethyl)-4-thia-3,6-diaza-2,5(2,6)-dipyridina-1(1,2)-benzenacycloundecaphane 4,4-dioxide] | 8.51 | 132.0% | 6.75 | 829% | 
6 | CC(C)(CO)CN1CCCCCCc2ccccc2-c2nc(ccc2C(F)(F)F)NS(=O)(=O)c2cccc1n2 [Compound 28, 6-(3-hydroxy-2,2-dimethylpropyl)-2^3-(trifluoromethyl)-4-thia-3,6-diaza-2,5(2,6)-dipyridina-1(1,2)-benzenacyclododecaphane 4,4-dioxide] | 9.05 | 171.1% | 7.18 |  | 
7 | O=C(O)CCN1CCCCCc2ccccc2-c2nc(ccc2Cl)NS(=O)(=O)c2cccc1n2 [Compound 89, 3-(2^3-chloro-4,4-dioxido-4-thia-3,6-diaza-2,5(2,6)-dipyridina-1(1,2)-benzenacycloundecaphane-6-yl)propanoic acid] | 7.51 | 56.7% | 5.93 | 858% | 
8 | O=C(O)CCCN1CCCCc2ccccc2-c2nc(ccc2C(F)(F)F)NS(=O)(=O)c2cccc1n2 [Compound 90, 4-(4,4-dioxido-2^3-(trifluoromethyl)-4-thia-3,6-diaza-2,5(2,6)-dipyridina-1(1,2)-benzenacyclodecaphane-6-yl)butanoic acid] | 8.34 | 123.2% | 6.04 | 674% | 
9 | O=C(O)CCN1CCCCCc2ccccc2-c2nc(ccc2C(F)(F)F)NS(=O)(=O)c2cccc1n2 [Compound 92, 3-(4,4-dioxido-2^3-(trifluoromethyl)-4-thia-3,6-diaza-2,5(2,6)-dipyridina-1(1,2)-benzenacycloundecaphane-6-yl)propanoic acid] | 8.16 | 90.0% | 6.16 | 982% | 
10 | CC(C)(CN1CCCCCCc2ccccc2-c2nc(ccc2C(F)(F)F)NS(=O)(=O)c2cccc1n2)C(=O)O [Compound 99, 3-(4,4-dioxido-2^3-(trifluoromethyl)-4-thia-3,6-diaza-2,5(2,6)-dipyridina-1(1,2)-benzenacyclododecaphane-6-yl)-2,2-dimethylpropanoic acid] | 9.10 | 279.3% | 6.64 |  | 
11 | tert-butyl 4-(4,4-dioxido-2^3-(trifluoromethyl)-10-oxa-4-thia-3,6-diaza-2,5(2,6)-dipyridina-1(1,2)-benzenacycloundecaphane-6-yl)butanoate |  |  |  |  | ring closure, isolated yield (snar bond, 16-membered ring, DIEA, NMP, 40.0 mM, 135.0 °C): 75%

Now from value to molecule, other results behind:

Row | pEC50 (delF508-CFTR [1]) | MTECC24 CFHBEC Amax % (delF508-CFTR [1]) | pEC50 (delF508-CFTR [2]) | Emax (delF508-CFTR [2]; [3]) | Molecule | also measured
12 | 8.37 | 175.8% | 6.45 |  | CC(C)(CN1CCCCCc2ccccc2-c2nc(ccc2C(F)(F)F)NS(=O)(=O)c2cccc1n2)C(=O)O [Compound 100, 3-(4,4-dioxido-2^3-(trifluoromethyl)-4-thia-3,6-diaza-2,5(2,6)-dipyridina-1(1,2)-benzenacycloundecaphane-6-yl)-2,2-dimethylpropanoic acid] | 
13 | 9.00 | 213.1% | 6.41 |  | O=S1(=O)Nc2ccc(C(F)(F)F)c(n2)-c2ccccc2CCCCCN(CCO)c2cccc1n2 [Compound 117, 6-(2-hydroxyethyl)-2^3-(trifluoromethyl)-4-thia-3,6-diaza-2,5(2,6)-dipyridina-1(1,2)-benzenacycloundecaphane 4,4-dioxide] | 
14 |  |  | 6.34 | 569% | O=C1c2ccccc2C(=O)N1CCCN1CCCCCc2ccccc2-c2nc(ccc2C(F)(F)F)NS(=O)(=O)c2cccc1n2 [Compound 133, 2-(3-(4,4-dioxido-2^3-(trifluoromethyl)-4-thia-3,6-diaza-2,5(2,6)-dipyridina-1(1,2)-benzenacycloundecaphane-6-yl)propyl)isoindoline-1,3-dione] | 
15 |  |  | 6.22 | 410% | O=C1C2CCCCC2C(=O)N1CCCN1CCCCCc2ccccc2-c2nc(ccc2C(F)(F)F)NS(=O)(=O)c2cccc1n2 (stereo not drawn) [Compound 134, 2-(3-(4,4-dioxido-2^3-(trifluoromethyl)-4-thia-3,6-diaza-2,5(2,6)-dipyridina-1(1,2)-benzenacycloundecaphane-6-yl)propyl)hexahydro-1H-isoindole-1,3(2H)-dione] | 
16 |  |  | 6.81 | 651% | O=C(O)CC[C@H]1CCCCc2ccccc2-c2nc(ccc2C(F)(F)F)NS(=O)(=O)c2cccc(n2)N1 [Compound 135, (R)-3-(4,4-dioxido-2^3-(trifluoromethyl)-4-thia-3,6-diaza-2,5(2,6)-dipyridina-1(1,2)-benzenacycloundecaphane-7-yl)propanoic acid] | 
